In patent US20260206761A1, “HETEROARYL-TRIAZOLE COMPOUNDS AS PESTICIDES” (Bayer Aktiengesellschaft, priority 2019, published 2026):

Experiments:
Format in all cases: in vivo
[1] = system: Rhipicephalus microplus larvae (strain Parkhurst, resistant against synthetic pyrethroids); assay: Rhipicephalus (Boophilus) microplus in-vitro contact test, larval cattle tick; conditions: after 48 hours, read-out: activity (efficacy: larvae dead or moribund); for pest or weed control at 100 g/ha: application rate 1 pg/cm^2 (=100 g/ha); for pest or weed control at 500 g/ha: application rate 5 pg/cm^2 (=500 g/ha)
How it was run: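 Larvae (20-50 per tube) exposed to dry compound film on glass tube walls, 5 μg/cm^2 at 900 ppm, applied from acetone. After 48 h at 27° C./85% RH, tubes tapped and negative geotaxis scored; efficacy as percent dead or moribund larvae.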

[2] = system: adult engorged female ticks (Rhipicephalus microplus); assay: Rhipicephalus (Boophilus) microplus injection test; conditions: 168 h, egg deposition after 7 days, read-out: activity (efficacy: infertile eggs); for pest or weed control at 4 pg: application rate 4 pg/animal; for pest or weed control at 0.02 mg: application rate 20 μg/animal
How it was run: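 Abdominal injection, 1 μL compound/DMSO, n=5 engorged adult females; climate-chamber incubation. Readout d7: fertile egg laying; doubtful eggs held to hatch (~42 d). % efficacy = infertile eggs (100% all infertile).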

[3] = system: adult cat fleas (Ctenocephalides felis); assay: Ctenocephalides felis in-vitro contact test, adult cat flea; conditions: application rate 5 μg/cm^2 (=500 g/ha), after 48 hours, read-out: activity (efficacy: fleas dead or moribund)
Procedure: Ctenocephalides felis—In-Vitro Contact Tests Adult Cat Flea
9 mg compound is solved in 1 mL acetone and diluted with acetone to the desired concentration. 250 μL of the test solution is filled in 25 mL glass test tubes and homogeneously distributed on the inner walls by rotation and tilting on a shaking device (2 h at 30 rpm). With a compound concentration of 900 ppm, an inner surface of 44.7 cm^2 and a homogeneous distribution, a dose of […] is achieved.
After the solvent has evaporated, each test tube is filled with 5-10 adult cat fleas (Ctenocephalides felis), closed with a perforated lid and incubated in a lying position at room temperature and relative humidity. After 48 hours efficacy is determined. The fleas are patted on the ground of the tubes and are incubated on a heating plate at 45-50° C. for at most 5 minutes. Immotile or uncoordinated moving fleas, which are not able to escape the heat by climbing upwards, are marked as dead or moribund.
An efficacy of 100% means all fleas are dead or moribund; 0% means no fleas are dead or moribund.

[4] = system: adult unfed cat fleas (Ctenocephalides felis); assay: Ctenocephalides felis oral test; conditions: 48 h, read-out: activity (mortality)
How it was run: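 About 20 adult unfed fleas fed through parafilm on cattle blood containing compound (DMSO stock diluted in blood), blood held at 37 °C and fleas at room temperature. Mortality (%) scored after 2 days.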

[5] = system: larvae of the banded cucumber beetle (Diabrotica balteata); assay: Diabrotica balteata spray test; conditions: 168 h, after 7 days, read-out: activity (efficacy: seedlings grown); for pest or weed control at 100 g/ha: application rate 100 g/ha (=32 pg/well); for pest or weed control at 500 g/ha: application rate 500 g/ha (=160 pg/well)
How it was run: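 Read-out is % efficacy at day 7, 0% meaning no seedling growth and 100% growth equal to uninfested untreated controls. Test solutions (acetone/DMF concentrate diluted with water carrying 1000 ppm emulsifier) were sprayed onto 1-day-germinated wheat seeds, 5 per well, before infestation with 10-20 larvae.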

[6] = system: green peach aphid (Myzus persicae); assay: Myzus persicae oral test; conditions: 120 h, application rate 4 ppm, after 5 days
How it was run: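 Readout: % mortality at day 5, where 100% = all aphids dead and 0% = none dead. Feeding via parafilm membrane over compound in IPL41 medium (33%+15% sugar); mixed-age population. Stock in acetone (1:100 w/w), water-diluted.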

[7] = system: green peach aphid (Myzus persicae); assay: Myzus persicae spray test; conditions: 120 h, after 5 days; for mortality at 100 g/ha: application rate 100 g/ha
Procedure: Myzus persicae—Spray Test
Solvent: 78.0 parts by weight acetone • 1.5 parts by weight dimethylformamide
Emulsifier: alkylarylpolyglycol ether
To produce a suitable preparation of active compound, 1 part by weight of active compound is mixed with the stated amount of solvents and is diluted with water, containing an emulsifier concentration of 1000 ppm, to the desired concentration. Further test concentrations are prepared by dilution with emulsifier containing water.
Chinese cabbage (Brassica pekinensis) leaf disks infected with all instars of the green peach aphid (Myzus persicae), are sprayed with a preparation of the active ingredient of the desired concentration.
After 5 days mortality in % is determined. 100% means all aphids have been killed and 0% means none of the aphids have been killed.

[8] = system: larvae of the southern green stink bug (Nezara viridula); assay: Nezara viridula spray test; conditions: 96 h, after 4 days; for mortality at 100 g/ha: application rate 100 g/ha; for mortality at 500 g/ha: application rate 500 g/ha
How it was run: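 Larva-infested barley (Hordeum vulgare) plants received a spray of test solution prepared from an acetone/DMF concentrate diluted in emulsifier-containing water (1000 ppm). Percent kill read 4 days later; 0% means no stink bugs dead.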

[9] = system: fall armyworm larvae (Spodoptera frugiperda); assay: Spodoptera frugiperda spray test; conditions: 168 h, read-out: activity (mortality)
How it was run: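 Larvae of fall armyworm placed on dried maize leaf sections previously sprayed with emulsified compound (acetone/DMF solvent, water with 1000 ppm emulsifier). Percent of caterpillars killed recorded on day 7, 0–100% scale.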

[10] = system: Aedes aegypti strain MONHEIM; assay: Aedes aegypti test (AEDSAE surface treatment & contact assay); conditions: 24 hours after contact, read-out: efficacy (mortality); for mortality at 4 mg/m2: surface concentration 4 mg/m^2, exposure 30 minutes
How it was run: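 Percent mortality was read 24 h after adult MONHEIM mosquitoes were held for 30 min on a tile treated with compound. Compound applied from acetone solution (2 mg/ml) containing 2000 ppm rapeseed oil methyl ester, after evaporation.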

[11] = system: Musca domestica strain WHO-N; assay: Musca domestica test (MUSCDO surface treatment & contact assay); conditions: 24 hours after contact, read-out: efficacy (mortality)
Procedure: Musca domestica Test (MUSCDO Surface Treatment & Contact Assay)
Solvent: Aceton+2000 ppm rapeseed oil methyl ester (RME)
In order to produce a sufficient, active ingredient containing solution it is necessary to solve the test compound in the solvent-mix (acetone at 2 mg/ml/RME 2000 ppm). This solution is pipetted onto a glazed tile and after evaporation of the acetone, adult flies of the species Musca domestica strain WHO—N are placed onto the dried surface. The exposure time is 30 minutes. Mortality in percent (%) is determined 24 hours after contact of the insects to the treated surface. 100% mortality means that all tested insects are dead, whereas 0% means that no insect died.

[12] = system: adult brown dog ticks (Rhipicephalus sanguineus); assay: Rhipicephalus sanguineus in-vitro contact test, adult brown dog ticks; conditions: after 48 hours, read-out: activity (efficacy: ticks dead or moribund); for pest or weed control at 100 g/ha: application rate 1 pg/cm^2 (=100 g/ha); for pest or weed control at 5 µg/cm2, 500 g/ha: application rate 5 μg/cm^2 (=500 g/ha)
How it was run: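 Contact exposure: dried compound film inside glass tubes, dose 5 μg/cm^2 at 900 ppm, 5-10 adults per tube at room temperature. Scored at 48 h via a heat-escape test on a 45-50° C plate for up to 5 min.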

[13] = surface concentration 20 mg/m^2, exposure 30 minutes

SMILES	pest or weed control at 100 g/ha [1] [%]	pest or weed control at 500 g/ha [1] [%]	pest or weed control at 4 pg [2] [%]	pest or weed control at 0.02 mg [2] [%]	pest or weed control at 5 µg/cm2 [3] [%]	mortality at 100 ppm [4] [%]	pest or weed control at 100 g/ha [5] [%]	pest or weed control at 500 g/ha [5] [%]	mortality at 4 ppm [6] [%]	mortality at 100 g/ha [7] [%]	mortality at 100 g/ha [8] [%]	mortality at 500 g/ha [8] [%]	mortality at 500 g/ha [9] [%]	mortality at 4 mg/m2 [10] [%]	mortality at 100 g/ha [9] [%]	pest or weed control at 100 g/ha [12] [%]	pest or weed control at 5 µg/cm2, 500 g/ha [12] [%]	also measured
C[C@H](NC(=O)c1cc(C#N)cc(S(C)(=O)=O)c1)c1ncnn1-c1ccc(C#N)cn1 [II-9]	80	80	100	100	90	100	100	100	100	90	100	100	100	80 to 100	–	–	–	mortality at 500 g/ha ([7]; application rate 500 g/ha): 90%
Cc1nc([C@H](C)NC(=O)c2cc(Cl)cc(S(=O)(=O)C(F)(F)F)c2)n(-c2ccc(Cl)cn2)n1 [II-14]	–	80	80	100	90	–	100	100	–	–	–	100	100	–	100	–	–	mortality at 20 mg/m2 [11, 13]: 80 to 100%
C[C@H](NC(=O)c1cc(Br)cc(S(C)(=O)=O)c1)c1ncnn1-c1ccc(C#N)cn1 [II-41]	100	100	100	100	100	100	100	–	100	100	100	–	–	–	100	100	100	–
C[C@H](NC(=O)c1cc(Cl)cc(C2(C#N)CC2)c1)c1ncnn1-c1ncc(Cl)cn1 [II-55]	100	100	100	–	100	100	100	–	100	100	100	–	–	–	100	100	100	–
C[C@H](NC(=O)c1cc(C2CC2)cc(C2CC2)c1)c1ncnn1-c1ccc(C#N)cn1 [II-57]	100	100	100	–	–	100	100	–	100	–	–	–	–	80 to 100	100	80	100	mortality at 20 mg/m2 [10, 13]: 80 to 100%; mortality at 4 mg/m2 ([11]; surface concentration 4 mg/m^2, exposure 30 minutes): 80 to 100%
